Laboratory results from US6979686B1, “Substituted pyrazoles as p38 kinase inhibitors” (Pharmacia Corporation, priority 2001, dated 2005).
Where a name gives a salt, the structure may show the parent alone. Read-outs that look alike come from different tables or passages of the source. Each block holds one compound with its values, some of them ahead of it.

Target: T1, human p38 kinase alpha (Homo sapiens, UniProt Q16539)
T1 construct: GST (N, cleaved yes); made in house; host or cells: E. coli DH10B
T1 sequence (Q16539 whole entry): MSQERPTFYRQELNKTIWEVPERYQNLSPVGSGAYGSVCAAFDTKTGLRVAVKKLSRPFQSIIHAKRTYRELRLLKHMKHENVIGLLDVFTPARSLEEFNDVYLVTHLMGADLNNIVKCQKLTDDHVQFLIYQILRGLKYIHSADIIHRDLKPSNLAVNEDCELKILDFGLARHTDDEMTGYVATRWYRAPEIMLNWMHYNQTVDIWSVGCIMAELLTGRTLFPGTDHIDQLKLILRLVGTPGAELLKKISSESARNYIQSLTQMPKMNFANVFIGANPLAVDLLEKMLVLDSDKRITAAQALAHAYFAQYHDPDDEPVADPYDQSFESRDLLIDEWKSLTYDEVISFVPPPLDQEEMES
Experiment: p38 kinase in vitro assay, phosphorylation of biotinylated PHAS-I with 32P-ATP
Type: biochemical

[1] = in vitro P38-alpha kinase inhibition, read-out: P38 alpha kinase IC50
[2] = in vitro P38-alpha kinase, read-out: P38 alpha kinase IC50

Structure (SMILES): O=C(NCCc1[nH]nc(-c2ccc(F)cc2)c1-c1ccncc1)c1c(F)cccc1F [Example B-1151]
IC50 [1]: 320 nM

Structure (SMILES): CN(C)C(=O)NC(Cc1ccccc1)c1[nH]nc(-c2ccc(F)cc2)c1-c1ccncc1 (centres unmarked) [Example B-0774]
IC50 [1]: 1500 nM

Structure (SMILES): Cc1c(Cl)cccc1S(=O)(=O)NC(C)c1[nH]nc(-c2ccc(F)cc2)c1-c1ccncc1 (centres unmarked) [Example B-0624]
IC50 [1]: 85 nM

Structure (SMILES): O=C(NC(Cc1ccccc1)c1[nH]nc(-c2ccc(F)cc2)c1-c1ccncc1)c1cccnc1 (centres unmarked) [Example B-0821]
IC50 [1]: 1440 nM

Structure (SMILES): O=C(NCCc1[nH]nc(-c2ccc(F)cc2)c1-c1ccncc1)Nc1cccc(F)c1 [Example B-1046]
P38 alpha kinase % inhib @ conc. (uM) (@ 1.0 uM): 72.0% @

Structure (SMILES): O=S(=O)(NC(Cc1ccccc1)c1[nH]nc(-c2ccc(F)cc2)c1-c1ccncc1)c1ccccc1F (centres unmarked) [Example B-0759]
IC50 [1]: 300 nM

Structure (SMILES): CCCOC(=O)NCCc1[nH]nc(-c2ccc(F)cc2)c1-c1ccncc1 [Example B-1053]
P38 alpha kinase % inhib @ conc. (uM) (@ 1.0 uM): 78.0% @

Structure (SMILES): COc1ccc(NC(=O)NCCc2[nH]nc(-c3ccc(F)cc3)c2-c2ccncc2)cc1 [Example B-1047]
P38 alpha kinase % inhib @ conc. (uM) (@ 1.0 uM): 72.0% @

Structure (SMILES): O=C(NCCc1[nH]nc(-c2ccc(F)cc2)c1-c1ccncc1)c1cc(F)ccc1F [Example B-1148]
IC50 [1]: 430 nM

Structure (SMILES): CC(NC(=O)C1CC1)c1[nH]nc(-c2ccc(F)cc2)c1-c1ccncc1 (centres unmarked) [Example B-0538]
IC50 [1]: 1130 nM

Structure (SMILES): CC(NS(=O)(=O)c1cc(Cl)cc(Cl)c1)c1[nH]nc(-c2ccc(F)cc2)c1-c1ccncc1 (centres unmarked) [Example B-0641]
IC50 [1]: 580 nM

Structure (SMILES): O=S(=O)(NCCc1[nH]nc(-c2ccc(F)cc2)c1-c1ccncc1)c1cccc2nonc12 [Example B-1105]
IC50 [1]: < 100 nM

Structure (SMILES): COc1ccc(NC(=O)NC(Cc2ccccc2)c2[nH]nc(-c3ccc(F)cc3)c2-c2ccncc2)c(OC)c1 (centres unmarked) [Example B-0789]
IC50 [1]: 33000 nM

Structure (SMILES): O=C(NCCc1[nH]nc(-c2ccc(F)cc2)c1-c1ccncc1)c1cc2ccccc2s1 [Example B-1124]
IC50 [1]: 1490 nM

Structure (SMILES): Cc1ccc(S(=O)(=O)NC(Cc2ccccc2)C(=O)NC(Cc2ccccc2)c2[nH]nc(-c3ccc(F)cc3)c2-c2ccncc2)cc1 (centres unmarked) [Example B-0859]
IC50 [1]: 39500 nM

Structure (SMILES): CN(C)S(=O)(=O)NCCc1[nH]nc(-c2ccc(F)cc2)c1-c1ccncc1 [Example B-1115]
IC50 [1]: 24 nM

Structure (SMILES): O=S(=O)(NCCc1[nH]nc(-c2ccc(F)cc2)c1-c1ccncc1)c1ccc(-c2ccccn2)s1 [Example B-1111]
IC50 [1]: 190 nM

Structure (SMILES): O=C(Nc1cccc(F)c1)NC(Cc1ccccc1)c1[nH]nc(-c2ccc(F)cc2)c1-c1ccncc1 (centres unmarked) [Example B-0740]
IC50 [1]: 4400 nM

Structure (SMILES): O=C(Nc1cccc(F)c1)NC(Cc1ccccc1)c1[nH]nc(-c2ccc(F)cc2)c1-c1ccncc1 (centres unmarked) [Example B-0785]
IC50 [1]: 23000 nM

Structure (SMILES): CC(NS(=O)(=O)c1ccccc1S(C)(=O)=O)c1[nH]nc(-c2ccc(F)cc2)c1-c1ccncc1 (centres unmarked) [Example B-0666]
IC50 [1]: 170 nM

Structure (SMILES): Clc1ccc(-c2[nH]nc(NC3CCNCC3)c2-c2ccncc2)cc1 [Example A-332, N-[5-(4-chlorophenyl)-4-(4-pyridinyl)-3H-pyrazol-3-yl]-4-piperidineamine, trihydrochloride, monohydrate]
IC50 (Table 8, 1% DMSO, read-out: p38α Kinase Assay IC50): 40 nM

Structure (SMILES): Cc1cccc(C)c1NC(=O)NC(C)c1[nH]nc(-c2ccc(F)cc2)c1-c1ccncc1 (centres unmarked) [Example B-0588]
IC50 [1]: 12800 nM

Structure (SMILES): O=C(NCCc1[nH]nc(-c2ccc(F)cc2)c1-c1ccncc1)NCc1ccccc1 [Example B-1031]
P38 alpha kinase % inhib @ conc. (uM) (@ 1.0 uM): 69.0% @

Structure (SMILES): CC(C)NC(=O)NC(Cc1ccccc1)c1[nH]nc(-c2ccc(F)cc2)c1-c1ccncc1 (centres unmarked) [Example B-0723]
IC50 [1]: 470 nM

Structure (SMILES): Cc1ccc(C(=O)NCc2[nH]nc(-c3ccc(F)cc3)c2-c2ccncc2)cc1 [Example B-0021]
inhibition at 1 µM (@ 1.0 uM, read-out: P38 alpha kinase % inhib @ conc.): 68%

Structure (SMILES): O=C(NCCc1[nH]nc(-c2ccc(F)cc2)c1-c1ccncc1)c1cccnc1 [Example B-1005]
P38 alpha kinase % inhib @ conc. (uM) (@ 1.0 uM): 58.0% @

Structure (SMILES): CC(NC(=O)NC(Cc1ccccc1)c1[nH]nc(-c2ccc(F)cc2)c1-c1ccncc1)c1ccccc1 (centres unmarked) [Example B-0784]
IC50 [1]: 7000 nM

Structure (SMILES): O=S(=O)(NCCc1[nH]nc(-c2ccc(F)cc2)c1-c1ccncc1)c1cccc2cnccc12 [Example B-1118]
IC50 [1]: 330 nM

Structure (SMILES): CC(NS(=O)(=O)c1ccccc1Br)c1[nH]nc(-c2ccc(F)cc2)c1-c1ccncc1 (centres unmarked) [Example B-0631]
IC50 [1]: 65 nM

Structure (SMILES): CC(NS(=O)(=O)c1ccc(C#N)cc1)c1[nH]nc(-c2ccc(F)cc2)c1-c1ccncc1 (centres unmarked) [Example B-0656]
IC50 [1]: 7 nM

Structure (SMILES): O=S(=O)(NCCc1[nH]nc(-c2ccc(F)cc2)c1-c1ccncc1)c1ccc(-c2ccccc2)cc1 [Example B-1109]
IC50 [1]: 54 nM

Structure (SMILES): O=C(NC(Cc1ccccc1)c1[nH]nc(-c2ccc(F)cc2)c1-c1ccncc1)C1CCC1 (centres unmarked) [Example B-0836]
IC50 [1]: 1240 nM

Structure (SMILES): Cc1ccc(C(=O)NCCc2[nH]nc(-c3ccc(F)cc3)c2-c2ccncc2)cc1 [Example B-1122]
IC50 [1]: 1840 nM

Structure (SMILES): O=C(NCc1ccccc1)NC(Cc1ccccc1)c1[nH]nc(-c2ccc(F)cc2)c1-c1ccncc1 (centres unmarked) [Example B-0725]
IC50 [1]: 9700 nM

Structure (SMILES): CC(C)COC(=O)NCCc1[nH]nc(-c2ccc(F)cc2)c1-c1ccncc1 [Example B-1010]
P38 alpha kinase % inhib @ conc. (uM) (@ 1.0 uM): 75.0% @

Structure (SMILES): COc1ccccc1C(=O)NC(C)c1[nH]nc(-c2ccc(F)cc2)c1-c1ccncc1 (centres unmarked) [Example B-0544]
IC50 [1]: 1120 nM

Structure (SMILES): CCCCOc1ccc(NC(=O)NCCc2[nH]nc(-c3ccc(F)cc3)c2-c2ccncc2)cc1 [Example B-0944]
P38 alpha kinase % inhib @ conc. (uM) (@ 1.0 uM): 45.0% @

Structure (SMILES): Cc1cccc(-c2n[nH]c(-c3cccc(C)c3)c2-c2ccncc2)c1 [Example A-28]
IC50 (activated human p38 kinase alpha, PHAS-I substrate, 50 μM unlabeled ATP, read-out: p38 kinase IC50): 300 nM

Structure (SMILES): CC(NC(=O)NCCc1ccccc1)c1[nH]nc(-c2ccc(F)cc2)c1-c1ccncc1 (centres unmarked) [Example B-0593]
IC50 [1]: 1220 nM

Structure (SMILES): CNC(=O)CCC(NC(=O)NC)c1[nH]nc(-c2ccc(F)cc2)c1-c1ccncc1 (centres unmarked) [Example B-0880]
IC50 [1]: 150 nM

Structure (SMILES): CCCS(=O)(=O)NC(C)c1[nH]nc(-c2ccc(F)cc2)c1-c1ccncc1 (centres unmarked) [Example B-0570]
IC50 [1]: 270 nM

Further lines, results first:

P38 alpha kinase % inhib @ conc. (@ 1.0 uM): 89.0% @
Structure (SMILES): CCN(CC)C(=O)NCCCc1[nH]nc(-c2ccc(F)cc2)c1-c1ccncc1 [Example B-1225]

IC50 [2]: 2370 nM
Structure (SMILES): Cc1c(-c2ccncc2)c(-c2ccc(F)cc2)nn1CC(=O)NCc1ccc(C(C)(C)C)cc1 [Example B-2290]

P38 alpha kinase IC50, uM or % inhib @ conc. (uM): % inhib (@ 10.0 uM): 82.0% @
Structure (SMILES): Cc1c(-c2ccncc2)c(-c2ccc(F)cc2)nn1CC(=O)Nc1ccc(OCc2ccccc2)cc1 [Example B-2437]

P38 alpha kinase % inhib @ conc. (@ 1.0 uM): 90.0% @
Structure (SMILES): CCCOC(=O)NCCCc1[nH]nc(-c2ccc(F)cc2)c1-c1ccncc1 [Example B-1230]

IC50 [2]: 260 nM
Structure (SMILES): O=S(=O)(NCCCc1[nH]nc(-c2ccc(F)cc2)c1-c1ccncc1)c1ccc(-c2ccon2)s1 [Example B-1290]

P38 alpha kinase IC50, uM or % inhib @ conc. (uM): % inhib (@ 10.0 uM): 75.0% @
Structure (SMILES): Cc1c(-c2ccncc2)c(-c2ccc(F)cc2)nn1CC(=O)Nc1ccc(OCCOc2ccccc2)cc1 [Example B-2448]

P38 alpha kinase IC50, uM or % inhib @ conc. (uM): % inhib (@ 10.0 uM): 78.0% @
Structure (SMILES): Cc1c(-c2ccncc2)c(-c2ccc(F)cc2)nn1CC(=O)N1CCCCC1 [Example B-2401]

P38 alpha kinase IC50, uM or % inhib @ conc. (uM): % inhib (@ 100.0 uM): 47% @
Structure (SMILES): CCN(CC)CCN(CCN(CC)CC)C(=O)Cn1nc(-c2ccc(F)cc2)c(-c2ccncc2)c1C [Example B-2407]

IC50 [2]: < 100 nM
Structure (SMILES): COc1ccc(OC)c(S(=O)(=O)NCCCc2[nH]nc(-c3ccc(F)cc3)c2-c2ccncc2)c1 [Example B-1262]

IC50 [2]: 24 nM
Structure (SMILES): Cc1ccccc1C(=O)N1CCC(c2[nH]nc(-c3ccc(F)cc3)c2-c2ccncc2)CC1 [Example B-1400]

IC50 (read-out: P38 alpha kinase IC50): 83 nM
Structure (SMILES): N[C@H]1CC[C@@H](c2[nH]nc(-c3ccc(C(F)(F)F)cc3)c2-c2ccncc2)CC1 [Example C-101, 5-cis-(4-AMINOCYCLOHEXYL)-4-(4-PYRIDYL)-3-[4-(TRIFLUOROMETHYL)PHENYL]PYRAZOLE]

IC50 [2]: 740 nM
Structure (SMILES): CCCCOc1ccc(S(=O)(=O)NCCCc2[nH]nc(-c3ccc(F)cc3)c2-c2ccncc2)cc1 [Example B-1261]

IC50 [1]: 85 nM
Structure (SMILES): O=C(NCCc1[nH]nc(-c2ccc(F)cc2)c1-c1ccncc1)c1ccccc1Br [Example B-1154]

P38 alpha kinase % inhib @ conc. (@ 1.0 uM): 87.0% @
Structure (SMILES): CCCCS(=O)(=O)NCCCc1[nH]nc(-c2ccc(F)cc2)c1-c1ccncc1 [Example B-1199]

IC50 [2]: 310 nM
Structure (SMILES): O=S(=O)(NCCCc1[nH]nc(-c2ccc(F)cc2)c1-c1ccncc1)c1ccc(S(=O)(=O)c2ccccc2)s1 [Example B-1293]

IC50 [2]: 4610 nM
Structure (SMILES): Cc1c(-c2ccncc2)c(-c2ccc(F)cc2)nn1CC(=O)NCCN1CCOCC1 [Example B-2284]

P38 alpha kinase IC50, uM or % inhib @ conc. (uM): % inhib (@ 100.0 uM): 72% @
Structure (SMILES): COc1ccc(CCN(CCC#N)C(=O)Cn2nc(-c3ccc(F)cc3)c(-c3ccncc3)c2C)cc1OC [Example B-2403]

IC50 [2]: 43 nM
Structure (SMILES): O=C(NCCCc1[nH]nc(-c2ccc(F)cc2)c1-c1ccncc1)c1ccc(F)cc1C(F)(F)F [Example B-1340]

IC50 [2]: 360 nM
Structure (SMILES): CCCS(=O)(=O)N1CCC(c2[nH]nc(-c3ccc(F)cc3)c2-c2ccncc2)CC1 [Example B-1431]

IC50 [2]: 1410 nM
Structure (SMILES): Cc1c(-c2ccncc2)c(-c2ccc(F)cc2)nn1CC(=O)NCCCN(C)C [Example B-2304]

IC50 [2]: 30 nM
Structure (SMILES): CC(C)C(=O)N1CCC(c2[nH]nc(-c3ccc(F)cc3)c2-c2ccncc2)CC1 [Example B-1361]

P38 alpha kinase % inhib @ conc. (@ 1.0 uM): 81.0% @
Structure (SMILES): O=C(NCCCc1[nH]nc(-c2ccc(F)cc2)c1-c1ccncc1)Nc1ccccc1 [Example B-1220]

IC50 [2]: 120 nM
Structure (SMILES): O=C(NCCCc1[nH]nc(-c2ccc(F)cc2)c1-c1ccncc1)c1cccc(C(F)(F)F)c1F [Example B-1339]

IC50 [2]: 670 nM
Structure (SMILES): O=C(c1ccccc1Br)N1CCC(c2[nH]nc(-c3ccc(F)cc3)c2-c2ccncc2)CC1 [Example B-1398]

P38 alpha kinase % inhib @ conc. (@ 10.0 uM): 76.0% @
Structure (SMILES): Cc1c(-c2ccncc2)c(-c2ccc(F)cc2)nn1CC(=O)NC1CCCc2ccccc21 (centres unmarked) [Example B-2326]

IC50 [2]: 32 nM
Structure (SMILES): N#Cc1cccc(C(=O)NCCCc2[nH]nc(-c3ccc(F)cc3)c2-c2ccncc2)c1 [Example B-1328]

P38 alpha kinase IC50, uM or % inhib @ conc. (uM): % inhib (@ 10.0 uM): 86.0% @
Structure (SMILES): COc1ccc2nc(NC(=O)Cn3nc(-c4ccc(F)cc4)c(-c4ccncc4)c3C)sc2c1 [Example B-2414]
